Active and inactive are the calls of the source.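 Rule for the calls: active = half-maximal inhibitory concentration below a set limit; inactive = the rest.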

This assay has as its target E3 ubiquitin-protein ligase SIAH1 (Homo sapiens) (UniProt Q8IUQ4). As to the kind of experiment: Siah-1 peptide-binding antagonists, alternate label, dose response, artefact control for Siah-1 antagonist project, biochemical, fluorescence polarization, fluorescein-plectin (AID 2127). The following applies: Siah-1/fluorescein-plectin binding. On the technique in general: Fluorescence polarisation rises when a labelled molecule tumbles more slowly, as on binding a larger partner.
Usually IC50 stands for the concentration needed to halve the response being measured. Consider `COCCCn1c(N)c(C(=O)NCc2ccco2)c2nc3ccccc3nc21`, for which the IC50 was > 200 µM (inactive). For the compound `COC/C=C/C1=CC2=CC(=O)C(C)(OC(=O)c3ccco3)C(=O)C2=CO1` (centres undefined), the IC50 is > 200 µM (inactive).

`O=C1CCCC(O)=C1N=Nc1ccc(C(=O)O)cc1`: the IC50 is > 200 µM (inactive). As for `Cc1ccccc1-c1nc2c3ccccc3nc(=S)n2[nH]1`, the IC50 is > 200 µM (inactive). For the compound `CCC(C)[C@H](NC(=O)N1CCn2c1nc1ccccc12)C(=O)NCCc1ccc(OC)c(OC)c1` (some centres undefined), the IC50 was > 200 µM (inactive).

For `COc1ccc(CCNC(=O)CCC(=O)N2CCOc3ccc(C)cc32)cc1OC`, the IC50 was > 200 µM (inactive). With `NS(=O)(=O)c1ccc(NS(=O)(=O)c2ccc(NC(=O)c3ccc(-c4ccccc4)cc3)cc2)cc1`, the IC50 was > 200 µM (inactive). In the case of `Nc1c(C(=O)NCc2ccco2)c2nc3ccccc3nc2n1CCc1ccccc1`, the IC50 is > 200 µM (inactive).

On to `COCCn1nnnc1C(c1cc2ccc(OC)cc2[nH]c1=O)N1CCc2ccccc2C1` (centres undefined), for which the IC50 was > 200 µM (inactive). For `CN(C)CCOC(=O)CCc1ccccc1`, the IC50 was > 200 µM (inactive). For `COc1cc(CC(=O)NCc2ccc3c(c2)OCO3)cc(OC)c1OC`, the IC50 is > 200 µM (inactive).

For the compound `C[C@]12CCC3C(CC=C4C[C@@H](O)CC[C@@]43C)C1CCC2[C@]1(C)CCC(=O)O1` (some centres undefined), the IC50 was > 200 µM (inactive). Then `O=C(N/N=C/c1ccc(OC(=O)c2cccs2)cc1)c1cccc(F)c1`, with > 200 µM (inactive).

For `CN(Cc1c(C(=O)N/N=C/c2ccc(F)cc2)nnn1-c1nonc1N)C1CCCCC1`, the IC50 was > 200 µM (inactive).

Consider `CC(=O)Nc1ccc(N=Cc2c(O)c(C(=O)Nc3ccccc3)cc3ccccc23)cc1`, for which the IC50 was 4.98 µM. Then `O=C(NCc1c(F)cccc1F)c1cc(COc2c(F)cccc2F)on1`, with > 200 µM (inactive).

In the case of `O=C(Nc1cccc(Oc2ccc(C(=O)O)c(C(=O)O)c2)c1)c1ccc(-c2ccccc2)cc1`, the IC50 is > 200 µM (inactive).

Take `O=C(CCn1ccc2ccccc21)NC1CCCc2ccccc21` (centres undefined): the IC50 is > 200 µM (inactive). Then `CC(C)(C)c1cc(-c2csc(Nc3ccccc3)[n+]2Cc2ccc(C(=O)O)cc2)cc(C(C)(C)C)c1O`, with > 200 µM (inactive).

For `CCC(C)N1C(=O)/C(=C/c2c(NCCCOC(C)C)nc3c(C)cccn3c2=O)SC1=S` (centres undefined), the IC50 was 5.66 µM.

On to `C[N+]1(CCNC(=O)/C=N/O)CCCCC1`, for which the IC50 is > 200 µM (inactive). Then `CN1/C(=C\C=C\C2=[N+](C)c3ccc4ccccc4c3C2(C)C)C(C)(C)c2ccccc21`, with > 200 µM (inactive). Then `CCOC(=O)/C(C#N)=c1/s/c(=C2\C=Cc3ccccc3N2CC)c(=O)n1CC`, with > 200 µM (inactive); and `Cc1coc2c(C)c3oc(=O)c(CCC(=O)N[C@@H](C)C(=O)N[C@@H](Cc4ccccc4)C(=O)O)c(C)c3cc12`, with > 200 µM (inactive).

As for `COc1ccc(N=C2NC(=O)S/C2=C\c2ccc(N(C)C)cc2)cc1`, the IC50 result is “inactive”.

As for `O=C(O)c1ccc(/C=N/NC(=O)c2ccc(CN3c4cccc5cccc(c45)S3(=O)=O)cc2)cc1`, the IC50 was > 200 µM (inactive).

With `COc1ccc(CCNC(=O)c2ccc(S(=O)(=O)N(C)c3ccccc3)cc2)cc1OC`, the IC50 is > 200 µM (inactive). Turning to `O=C(O)CCCNc1cc(N2CCN(C(=O)c3ccco3)CC2)c2noc3c2c1C(=O)c1ccccc1-3`, the IC50 is 10.9 µM. `O=C(CC1Nc2cccc3cccc(c23)NC1=O)Nc1ccccc1` (centres undefined): the IC50 is > 200 µM (inactive). In the case of `O=S(=O)(Nc1cc2nc3ccccc3nc2n1Cc1ccccc1)c1ccc(Cl)cc1`, the IC50 is > 200 µM (inactive). As for `CN1C(=O)NC(c2ccccc2[N+](=O)[O-])C2=C1CCCC2=O` (centres undefined), the IC50 was 5.41 µM. Take `Cc1ccc(NC(=O)CCC(=O)NNC(=O)c2ccccc2[N+](=O)[O-])c(C)c1`: the IC50 was > 200 µM (inactive). For the compound `O=S(=O)(O)c1cc(O)c2c(O)c(N=Nc3cc(Cl)ccc3O)c(S(=O)(=O)O)cc2c1`, the IC50 was > 200 µM (inactive). Under `CC1CCCCC1NC(=O)CCS(=O)(=O)c1ccc2c(c1)NC(=O)CO2` (centres undefined) stands > 200 µM (inactive); under `Nc1ccc(O)c2c1C(=O)c1ccccc1C2=O`, 5.75 µM. Then `CCCCNc1c2c3c(cccc3n(C)c1=O)C(=O)c1ccccc1-2`, with > 200 µM (inactive). Then `COC(=O)c1cccc(Cn2c(Cl)c(/C=N/NC(=O)c3ccccc3Cl)sc2=O)c1`, with > 200 µM (inactive); and `CCCCNc1nnc(Cc2ccc(Cl)cc2)c(=O)[nH]1`, with > 200 µM (inactive). In the case of `CCOc1cc(/C=C(\C#N)C(=O)Nc2ccccc2C(=O)O)ccc1OC(=O)c1ccc(C)cc1`, the IC50 is > 200 µM (inactive).

Consider `N#CC1C=Cc2ccccc2N1C(=O)c1ccccc1` (centres undefined), for which the IC50 was > 200 µM (inactive).

Take `Nc1c(C(=O)NCc2ccco2)c2nc3ccccc3nc2n1Cc1ccccc1`: the IC50 was > 200 µM (inactive). For the compound `O=C1C=C(NCc2ccccc2)c2ccccc2C1=O`, the IC50 is > 200 µM (inactive).

In the case of `CN(C)c1cccc2c(C=C(C#N)C#N)ccc(N(C)C)c12`, the IC50 is > 200 µM (inactive). Then `N#Cc1c(NC(=O)c2ccc(Br)o2)n(-c2ccccc2)c2nc3ccccc3nc12`, with > 200 µM (inactive); and `Cc1ccccc1NC(=O)CN1C(=O)N/C(=C\c2ccccc2OCc2ccc(C(=O)O)cc2)C1=O`, with > 200 µM (inactive). Then `CC(=O)c1ccc(NC(=O)CC2Nc3cccc4cccc(c34)NC2=O)cc1` (centres undefined), with > 200 µM (inactive). `O=C(O)CCCCN1C(=O)/C(=C\c2ccc(OCc3ccccc3)c(OCc3ccccc3)c2)SC1=S`: the IC50 is > 200 µM (inactive).

As for `COc1ccc(C(C(=O)NCc2ccccc2)N(Cc2ccco2)C(=O)c2cnccn2)cc1` (centres undefined), the IC50 is > 200 µM (inactive). Regarding `CCc1nnc(NS(=O)(=O)c2ccc(NC(=S)NC(=O)/C=C/c3ccc(C(C)C)cc3)cc2)s1`, the IC50 was > 200 µM (inactive). Then `C=C(C)Cn1c(N2CCN(CC)CC2)nc2c1c(=O)[nH]c(=O)n2C`, with > 200 µM (inactive). Then `COCCCNc1c2c3c(cccc3[nH]c1=O)C(=O)c1ccccc1-2`, with > 200 µM (inactive). As for `CCOc1ccccc1CNc1ccc(O)cc1`, the IC50 is > 200 µM (inactive). Consider `Oc1c(Br)cc(Br)cc1CNc1ccc(F)cc1`, for which the IC50 was > 200 µM (inactive). Then `Cc1ccc(-n2cccn2)c([C@@H]2C[C@H]3CN(C)C(=O)[C@]34CCCN24)c1`, with > 200 µM (inactive); and `Cc1ccc(C(=O)COc2ccccc2C(=O)Nc2ccccc2)cc1`, with > 200 µM (inactive). Then `CC(C)COc1ccc(-c2nn(-c3ccccc3)cc2/C=C2/SC(=S)N(CC(=O)O)C2=O)cc1`, with > 200 µM (inactive); and `CC12CCC(C(=O)NCc3ccc(Cl)cc3)(OC1=O)C2(C)C` (centres undefined), with > 200 µM (inactive). Turning to `COc1cccc(CCC(=O)N(C)C2CCCN(Cc3ccccc3F)C2)c1` (centres undefined), the IC50 was > 200 µM (inactive). Then `COC(=O)c1cc(NC(=O)c2ccccc2)c(=O)oc1/C=C/Nc1ccc(Oc2ccccc2)cc1`, with > 200 µM (inactive). In the case of `c1ccc(C(c2ccccc2)N2CCN(C(c3ccccn3)c3nnnn3C3CCCC3)CC2)cc1` (centres undefined), the IC50 is > 200 µM (inactive).

As to `CCCCn1c(NC(=O)c2ccc(Br)o2)c(C(=O)OCC)c2nc3ccccc3nc21`, the IC50 was > 200 µM (inactive).

Consider `O=C(Nc1ccc(Br)cc1)c1ccc(N2C(=O)C3CC=CCC3C2=O)cc1` (centres undefined), for which the IC50 is > 200 µM (inactive). Under `S=c1[nH]nc(Cc2cccc3ccccc23)n1-c1ccccc1` stands > 200 µM (inactive); under `CC1(C)OC(C)(C)/C(=C/Nc2ccc(O)cc2)C1=O`, > 200 µM (inactive).

Source of the values: PubChem BioAssay AID2127 (Sanford-Burnham Center for Chemical Genomics, 2009).
